Structures can show the parent of a compound that is named as a salt. Where two headings read alike, the source gives them in different places.
Tests used:
[1] = tested on: AR 1.0 cells; test: Drug accumulation assay (tritiated daunorubicin); assay type: cell-based; conditions: Mus musculus; for Emax: 1 h, read-out: Max accumulation; for IC50: daunorubicin 2 μM, 1 hr at 37° C., read-out: IC50 accumulation
Description: AR 1.0 cells were seeded into 96 well opaque culture plates (Canberra Packard). The assay medium contained a mixture of tritiated Daunorubicin (DNR), a cytotoxic agent, and unlabelled DNR (0.3 μCi/ml; 2 μM). Compounds of formula I were serially diluted in assay medium over a range of concentrations from 5 nM to 100 μM. The cells were incubated at 37° C. for 1 hr before washing and determination of cell associated radioactivity. Results were expressed as % maximum accumulation where 100% accumulation is that observed in the presence of the known RMA verapamil at 100 μM. Where possible an IC50 was determined.

[2] = tested on: AR 1.0 cells; test: Potentiation of doxorubicin toxicity (fixed doxorubicin 0.86 μM, proliferation, sulphorhodamine B); assay type: cell-based, mouse; conditions: for IC50: with doxorubicin 0.86 μM, four day incubation, 5760 min, read-out: Toxicity with cytotoxic agent (IC50)
From the text: Compounds of formula (I) were examined for their ability to potentiate the toxicity of doxorubicin in AR 1.0 cells.

[3] = tested on: AR 1.0 cells; test: Compound toxicity (proliferation, sulphorhodamine B); assay type: cell-based; conditions: Mus musculus, 96 h; compound alone; AR 1.0 cells; four day incubation; read-out: Compound toxicity (IC50)
[4] = tested on: AR 1.0 cells; test: Potentiation index for doxorubicin (doxorubicin titration with fixed concentration of compound); assay type: cell-based, mouse; conditions: RMA at 1 μM; doxorubicin, four days
Description: The EMT6 mouse mammary carcinoma cell line and the MDR resistant sublime AR 1.0 were cultured in RPMI 1640 medium containing 10% foetal calf serum and 2 mM glutamine at 37° C. in 5% CO2. Cells were passaged between 1 in 200 and 1 in 2000 in the case of the parental cell line and between 1 in 20 and 1 in 200 in the case of the MDR resistant subline, after trypsinisation (0.25% trypsin, 0.2 gl^-1, EDTA).
Cells were cultured for four days with a titration of doxorubicin (0.01 nm-50 μM) in the presence of a fixed concentration of each compound. Proliferation was quantified as described by Skehan et. al, loc cit. The IC50 (concentration required to reduce proliferation to 50% of the untreated controls) for doxorubicin alone and with each compound were derived and used to calculate the potentiation index (PI): [formula]

[5] = % maximum accumulation, 100% = verapamil at 100 μM, compound 5 nM to 100 μM

Row | IC50 [1] | SMILES | IC50 [2] | IC50 [3] | Emax [1, 5] | also measured
1 | 5 µM | COc1cc2c(cc1OC)CN(CCc1ccc(/C=c3\[nH]c(=O)/c(=C/c4ccccc4)n(C)c3=O)cc1)CC2 [Compound 9115, (3Z,6Z)-6-Benzylidene-3-(4-(2-(6,7-dimethoxy-1,2,3,4-tetrahydro-2-isoquinolyl)ethyl)benzylidene)-1-methyl-2,5-piperazinedione] | 2 µM | 60 µM | – | –
2 | 1.7 µM | COc1cc2c(cc1OC)CN(CC1CCN(C(=O)c3ccc(/C=c4\[nH]c(=O)/c(=C/c5ccccc5)n(C)c4=O)cc3)CC1)CC2 [Compound 9200, 1-(4-((3Z,6Z)-6-Benzylidene-1-methyl-2,5-dioxo-3-piperazinylidene)methylbenzoyl)-4-(6,7-dimethoxy-1,2,3,4-tetrahydroisoquinolyl)methylpiperidine] | 0.8 µM | 13 µM | – | –
3 | 3 µM | COc1cc2c(cc1OC)CN(Cc1ccc(NC(=O)c3cccc(/C=c4\[nH]c(=O)/c(=C/c5ccccc5)n(C)c4=O)c3)cc1)CC2 [Compound 9128, N-(4-(6,7-Dimethoxy-1,2,3,4-tetrahydro-2-isoquinolyl)methylphenyl)-3-((3Z,6Z)-6-benzylidene-1-methyl-2,5-dioxo-3-piperazinylidene)methylbenzamide] | 2 µM | 10 µM | – | –
4 | 3 µM | COc1cc2c(cc1OC)CN(CCNC(=O)c1ccc(/C=c3\[nH]c(=O)/c(=C/c4ccccc4)n(C)c3=O)cc1)CC2 [Compound 9008, N-(2-(6,7-Dimethoxy-1,2,3,4-tetrahydro-2-isoquinolyl)ethyl)-4-((3Z,6Z)-6-benzylidene-1-methyl-2,5-dioxo-3-piperazinylidene)methylbenzamide] | 2 µM | 10 µM | – | –
5 | 0.4 µM | COc1cc2c(cc1OC)CN(CCc1ccc(NC(=O)c3ccc(/C=c4\[nH]c(=O)/c(=C/c5ccccc5)n(C)c4=O)cc3)cc1)CC2 [Compound 9006, N-(4-(2-(6,7-Dimethoxy-1,2,3,4-tetrahydro-2-isoquinolyl)ethyl)phenyl)-4-((3Z,6Z)-6-benzylidene-1-methyl-2,5-dioxo-3-piperazinylidene)methylbenzamide] | – | 2 µM | – | Potentiation index [4]: 1000
6 | 6 µM | Cn1c(=O)/c(=C/c2ccc(C(=O)Nc3ccc(CCN4CCc5ccccc5C4)cc3)cc2)[nH]c(=O)/c1=C/c1ccccc1 [Compound 9065, N-(4-(2-(1,2,3,4-Tetrahydro-2-isoquinolyl)ethyl)phenyl)-4-((3Z,6Z)-6-benzylidene-1-methyl-2,5-dioxo-3-piperazinylidene)methylbenzamide] | – | 2 µM | – | Potentiation index [4]: 15
7 | 5 µM | COc1ccc(CCNC(=O)c2ccc(/C=c3\[nH]c(=O)/c(=C/c4ccccc4)n(C)c3=O)cc2)cc1OC [Compound 9117, N-(3,4-Dimethoxyphenethyl)-4-((3Z,6Z)-6-benzylidene-1-methyl-2,5-dioxo-3-piperazinylidene)methylbenzamide] | 3 µM | 8 µM | – | –

The next lines start with the compound.

Row | SMILES | IC50 [1] | IC50 [2] | IC50 [3] | Emax [1, 5] | also measured
8 | Cn1c(=O)/c(=C/c2ccc(C(=O)Nc3ccc(CCN4CCc5c([nH]c6ccccc56)C4)cc3)cc2)[nH]c(=O)/c1=C/c1ccccc1 [Compound 9080, N-(4-(2-(1,2,3,4-Tetrahydro-β-carbolin-2-yl)ethyl)phenyl)-4-((3Z,6Z)-6-benzylidene-1-methyl-2,5-dioxo-3-piperazinylidene)methylbenzamide] | – | – | – | – | Emax [1]: 18%
9 | Cn1c(=O)/c(=C/c2ccc(C(=O)Nc3ccc(N4CCOCC4)cc3)cc2)[nH]c(=O)/c1=C/c1ccccc1 [Compound 9054, N-(4-Morpholinophenyl)-4-((3Z,6Z)-6-benzylidene-1-methyl-2,5-dioxo-3-piperazinylidene)methylbenzamide, hydrochloride] | – | 30 µM | 50 µM | 32% | –
10 | CN1CCN(CCNC(=O)c2ccc(/C=c3\[nH]c(=O)/c(=C/c4ccccc4)n(C)c3=O)cc2)CC1 [Compound 9007, N-(2-(4-Methyl-1-piperazinyl)ethyl)-4-((3Z,6Z)-6-benzylidene-1-methyl-2,5-dioxo-3-piperazinylidene)methylbenzamide] | – | – | – | 30% | –
11 | Cn1c(=O)/c(=C/c2cccc(C(=O)Nc3ccc(CCN4CCN(c5ccccc5)CC4)cc3)c2)[nH]c(=O)/c1=C/c1ccccc1 [Compound 9083, N-(4-(2-(4-Phenyl-1-piperazinyl)ethyl)phenyl)-3-((3Z,6Z)-6-benzylidene-1-methyl-2,5-dioxo-3-piperazinylidene)methylbenzamide] | 2 µM | 0.1 µM | 3 µM | – | –
12 | Cn1c(=O)/c(=C/c2ccc(C(=O)NCCN3CCOCC3)cc2)[nH]c(=O)/c1=C/c1ccccc1 [Compound 9053, N-(2-Morpholinoethyl)-4-((3Z,6Z)-6-benzylidene-1-methyl-2,5-dioxo-3-piperazinylidene)methylbenzamide, hydrochloride] | 50 µM | – | 40 µM | – | –
13 | Cn1c(=O)/c(=C/c2ccc(C(=O)Nc3ccc(CN4CCc5c([nH]c6ccccc56)C4)cc3)cc2)[nH]c(=O)/c1=C/c1ccccc1 [Compound 9096, N-(4-(1,2,3,4-Tetrahydro-β-carbolin-2-yl)methylphenyl)-4-((3Z,6Z)-6-benzylidene-1-methyl-2,5-dioxo-3-piperazinylidene)methylbenzamide] | – | – | – | – | Emax [1]: 20%
14 | Cn1c(=O)/c(=C/c2ccc(C(=O)Nc3ccc(CCN4CCN(c5cccc(C(F)(F)F)c5)CC4)cc3)cc2)[nH]c(=O)/c1=C/c1ccccc1 [Compound 9049, N-(4-(2-(4-(3-Trifluoromethylphenyl)-1-piperazinyl)ethyl)phenyl)-4-((3Z,6Z)-6-benzylidene-1-methyl-2,5-dioxo-3-piperazinylidene)methylbenzamide] | – | – | 2 µM | 20% | Potentiation index [4]: 15
15 | COc1ccc(CCN(C)CCNC(=O)c2cccc(/C=c3\[nH]c(=O)/c(=C/c4ccccc4)n(C)c3=O)c2)cc1OC [Compound 9137] | 2 µM | 4.5 µM | 12 µM | – | –
16 | COc1cccc2c1C(=O)c1c(O)c3c(c(O)c1C2=O)C[C@@](O)(C(=O)CO)C[C@@H]3O[C@H]1C[C@H](N)[C@H](O)[C@H](C)O1 [doxorubicin, reference compound] | – | – | – | – | Toxicity of doxorubicin alone ([2]; doxorubicin alone, 0.86 μM, AR 1.0 cells): non-toxic
17 | CN1CCN(C(=O)c2ccc(/C=c3\[nH]c(=O)/c(=C/c4ccccc4)n(C)c3=O)cc2)CC1 [Compound 9052, 1-(4-((3Z,6Z)-6-Benzylidene-1-methyl-2,5-dioxo-3-piperazinylidene)methylbenzoyl)-4-methylpiperazine, hydrochloride] | 100 µM | – | – | – | –
18 | CN(C)CC(O)COc1ccc(/C=c2\[nH]c(=O)/c(=C/c3ccccc3)n(C)c2=O)cc1 (stereo not drawn) [Compound 9023, (3Z,6Z)-6-Benzylidene-3-(4-(3-dimethylamino-2-hydroxypropoxy)benzylidene)-1-methyl-2,5-piperazinedione] | – | 5 µM | 10 µM | 30% | –
19 | Cn1c(=O)/c(=C/c2ccc(C(=O)Nc3ccc(CCN4CCN(c5ccccc5)CC4)cc3)cc2)[nH]c(=O)/c1=C/c1ccccc1 [Compound 9103, N-(4-(2-(4-Phenyl-1-piperazinyl)ethyl)phenyl)-4-((3Z,6Z)-6-benzylidene-1-methyl-2,5-dioxo-3-piperazinylidene)methylbenzamide] | – | – | – | 20% | –
20 | COc1cc2c(cc1OC)CN(CCCc1ccc(NC(=O)c3cccc(/C=c4\[nH]c(=O)/c(=C/c5ccccc5)n(C)c4=O)c3)cc1)CC2 [Compound 9161, N-(4-(3-(6,7-Dimethoxy-1,2,3,4-tetrahydro-2-isoquinolyl)propyl)phenyl)-3-((3Z,6Z)-6-benzylidene-1-methyl-2,5-dioxo-3-piperazinylidene)methylbenzamide,hydrochloride] | – | – | – | 20% | –
21 | C=CCNC(=O)c1ccc(/C=c2\[nH]c(=O)/c(=C/c3ccccc3)n(C)c2=O)cc1 [Compound 9070, N-Allyl-4-((3Z,6Z)-6-benzylidene-1-methyl-2,5-dioxo-3-piperazinylidene)methylbenzamide] | 5 µM | – | 40 µM | – | –
22 | CN(CCNC(=O)c1ccc(/C=c2\[nH]c(=O)/c(=C/c3ccccc3)n(C)c2=O)cc1)C(c1ccccc1)c1ccccc1 [Compound 9076, N-(2-Diphenylmethylmethylaminoethyl)-4-((3Z,6Z)-6-benzylidene-1-methyl-2,5-dioxo-3-piperazinylidene)methylbenzamide, hydrochloride] | – | – | – | 44% | –
23 | Cn1c(=O)/c(=C/c2ccc(C(=O)NCCN3CCc4ccccc4C3)cc2)[nH]c(=O)/c1=C/c1ccccc1 [Compound 9116, N-(2-(1,2,3,4-Tetrahydro-2-isoquinolyl)ethyl)-4-((3Z,6Z)-6-benzylidene-1-methyl-2,5-dioxo-3-piperazinylidene)methylbenzamide, hydrochloride] | 4 µM | 1 µM | 8 µM | – | –

— patent US5935955A, “Pharmaceutical piperazine compounds” (Xenova Limited, priority 1994, dated 1999)
